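Cells were grown in 96-well plates and exposed to each compound for 48 hours at five concentrations; endpoints were interpolated linearly between bracketing concentrations, or set to the highest concentration if not reached. GI50 = concentration required for 50% inhibition of growth.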 The source made the active and inactive calls. Rule as the data show it: active = GI50 up to about 1.1 µM and inactive = higher.
Assays:
Test in all cases: growth of human tumour cells (NCI), 48 h
M19-MEL = test system: M19-MEL
LXFL 529 = test system: LXFL 529
DLD-1 = test system: DLD-1
XF498 = test system: XF498
DMS-114 = test system: DMS-114
KM-20L2 = test system: KM-20L2
HOP-18 = test system: HOP-18
SNB-78 = test system: SNB-78
RXF 631 = test system: RXF 631

Measured: GI50

N=C(N)/N=C(/C=C/c1ccccc1)CC1OC(=O)c2ccccc21 (centres undefined)
inactive: M19-MEL > 100 µM | LXFL 529 > 100 µM | DLD-1 > 100 µM | XF498 > 100 µM | DMS-114 > 100 µM | KM-20L2 > 100 µM

CC12Oc3ccc4ccccc4c3CC1Cc1c(ccc3ccccc13)O2 (centres undefined)
inactive: M19-MEL > 100 µM | HOP-18 35.9 µM | LXFL 529 45.4 µM | DLD-1 58.1 µM | DMS-114 60.1 µM | KM-20L2 > 100 µM

COc1ccc(/C=N/N=C(\N)NO)c(OC)c1C
inactive: HOP-18 5.24 µM | LXFL 529 3.62 µM | DLD-1 29 µM | DMS-114 13.2 µM | SNB-78 20.5 µM

CSc1nc2c(c(O)c(C)c(=O)n2C2OCC(OC(C)=O)C(OC(C)=O)C2OC(C)=O)c(=O)n1C (centres undefined)
inactive: M19-MEL > 100 µM | LXFL 529 > 100 µM | DLD-1 > 100 µM | DMS-114 > 100 µM | SNB-78 > 100 µM | KM-20L2 > 100 µM

N#C/C(=C\c1ccc[nH]1)C(=O)c1ccccc1
inactive: M19-MEL > 100 µM | HOP-18 70.3 µM | LXFL 529 > 100 µM | DLD-1 > 100 µM | RXF 631 > 100 µM | DMS-114 > 100 µM | SNB-78 > 100 µM | KM-20L2 > 100 µM

CCOC(=O)[C@H]1Nc2ccc([N+](=O)[O-])cc2C2c3ccccc3CC21 (some centres undefined)
inactive: M19-MEL 20.8 µM | LXFL 529 5.79 µM | DLD-1 25.4 µM | XF498 30 µM | DMS-114 15.9 µM | SNB-78 42.1 µM | KM-20L2 20.6 µM

C1=CC2SSSC2C1 (centres undefined)
inactive: M19-MEL > 100 µM | HOP-18 > 100 µM | LXFL 529 > 100 µM | DLD-1 > 100 µM | XF498 > 100 µM | DMS-114 > 100 µM | KM-20L2 > 100 µM

CC(=O)NC(CCCNC(=O)N(CCCl)N=O)C(=O)NCc1ccccc1 (centres undefined)
inactive: M19-MEL > 100 µM | HOP-18 > 100 µM | LXFL 529 > 100 µM | DLD-1 58.6 µM | XF498 > 100 µM | DMS-114 > 100 µM | KM-20L2 > 100 µM

COc1cccc(NC(=O)CSc2nnc(Cc3ccccc3)o2)c1
inactive: M19-MEL > 100 µM | HOP-18 > 100 µM | LXFL 529 > 100 µM | DLD-1 > 100 µM | DMS-114 > 100 µM | SNB-78 > 100 µM | KM-20L2 > 100 µM

CCC1CC(C)=CCN1S(=O)(=O)c1ccc(C)cc1 (centres undefined)
inactive: LXFL 529 12.9 µM | DMS-114 15.9 µM | KM-20L2 19.2 µM

O=C(CC1C(=O)Nc2ccccc2[S+]1[O-])Nc1cccc(Cl)c1 (centres undefined)
inactive: M19-MEL > 100 µM | HOP-18 > 100 µM | LXFL 529 91.8 µM | DLD-1 > 100 µM | XF498 > 100 µM | DMS-114 47.1 µM | SNB-78 40.9 µM | KM-20L2 > 100 µM

Cc1ccccc1C1SCc2nc3ccccc3n21 (centres undefined)
inactive: M19-MEL > 100 µM | HOP-18 > 100 µM | DLD-1 > 100 µM | DMS-114 6.79 µM | SNB-78 > 100 µM

CCOc1ccc(NCC2CC/C(=C\c3ccc(Cl)cc3)C2=O)cc1 (centres undefined)
inactive: M19-MEL > 42.4 µM | HOP-18 22.1 µM | LXFL 529 13.1 µM | DLD-1 10 µM | XF498 19.3 µM | DMS-114 26.4 µM | SNB-78 98.9 µM | KM-20L2 > 38.3 µM

CN/C(=N\C#N)N(Cc1ccccc1)Cc1ccccc1
inactive: M19-MEL > 100 µM | LXFL 529 > 100 µM | DLD-1 > 100 µM | XF498 > 100 µM | SNB-78 > 100 µM | KM-20L2 > 100 µM

COc1cc(CC2c3cc(OC)c(OC)cc3CCN2C)c(C(=O)O)cc1OC (centres undefined)
inactive: M19-MEL > 100 µM | HOP-18 > 100 µM | LXFL 529 > 100 µM | DLD-1 > 100 µM | XF498 > 100 µM | DMS-114 > 100 µM | SNB-78 > 100 µM | KM-20L2 > 100 µM

C/C(CN1C(=O)c2ccccc2C1=O)=N\NS(=O)(=O)c1ccccc1
inactive: M19-MEL > 100 µM | HOP-18 > 100 µM | LXFL 529 > 100 µM | DLD-1 > 100 µM | RXF 631 > 100 µM | DMS-114 > 100 µM | SNB-78 > 100 µM | KM-20L2 > 100 µM

CCOC(=O)/C(=C/c1ccccc1)N(CC)CC
inactive: M19-MEL > 100 µM | LXFL 529 > 100 µM | XF498 > 100 µM | DMS-114 > 100 µM | SNB-78 > 100 µM | KM-20L2 > 100 µM

COc1cc2cc3c4c(cc(OC)c(OC)c4c2cc1OC)CCN3C(=O)CCCC(=O)O
inactive: M19-MEL > 100 µM | LXFL 529 > 100 µM | DLD-1 > 100 µM | DMS-114 > 100 µM | SNB-78 48.1 µM | KM-20L2 > 100 µM

CCOC(=O)CC(NC(=O)c1nc[nH]c1[N+](=O)[O-])C(=O)OCC (centres undefined)
inactive: M19-MEL 82 µM | LXFL 529 41.5 µM | DLD-1 39 µM | DMS-114 43.3 µM

O=C1CCC2(c3ccc(F)cc3)Nc3ccccc3N12 (centres undefined)
inactive: M19-MEL > 100 µM | LXFL 529 > 100 µM | DLD-1 > 100 µM | XF498 > 100 µM | RXF 631 > 100 µM | DMS-114 > 100 µM | SNB-78 > 100 µM | KM-20L2 > 100 µM

— ChEMBL document CHEMBL1201862, “PubChem BioAssay data set” (2004)
